From patent US6906078B2, “Method of using (H+/K+) ATPase inhibitors as antiviral agents” (Pharmacia Corporation, priority 1994, dated 2005)
Read-outs that look alike come from different tables or passages of the source.

Key:
(H+/K+)-ATPase = molecular target: T1, (H+/K+)-ATPase (Canis lupus familiaris, UniProt P50996); experiment: Inhibition of (H+/K+)-ATPase from canine gastric mucosa (inorganic phosphate release); assay type: biochemical
T1 construct: The microsomes retained at the 15%-30% sucrose interface, after centrifugation at 250,000×g for sixty minutes, were used as the source of (H^+/K^+)-ATPase; from tissue; host or cells: gastric glandular mucosa of mongrel dogs (microsomal fraction, lyophilized)
Experimental: Mongrel dogs weighing 15 to 25 kilograms were fasted for twenty-four hours, with water provided ad libitum. The animals were anesthetized with pentobarbital and the stomachs were removed. Subsequent tissue manipulations and subcellular fractionations were performed at 0° C. to 4° C. After the stomachs were cut open and rinsed with tap water, the antral and cardiac regions were removed and the remaining tissue was rinsed three times in saline. The glandular mucosa was removed mechanically, chopped finely in a medium containing 10 mM Tris hydrochloride (pH 7.4) and 250 mM sucrose, and homogenized. The homogenate was centrifuged at 20,000×g for twenty minutes and the pellet discarded. The supernatant was then centrifuged at 150,000×g for ninety minutes and the supernatant discarded. The pellet was resuspended in the Tris-HCl/sucrose medium by homogenization. Part (2 ml) of the resultant microsomal suspension was layered onto a step gradient consisting of 9 ml of 15% sucrose above 12 ml of 30% sucrose, each sucrose solution being buffered with 10 mM Tris hydrochloride (pH 7.4) containing 0.01% sodium azide. The microsomes retained at the 15%-30% sucrose interface, after centrifugation at 250,000×g for sixty minutes, were used as the source of (H^+/K^+)-ATPase. Microsomal preparations were lyophilized, a process that assured potassium ion permiability, and stored at −10° C. until used.
(H^+/K^+)-ATPase activity for each test compound was determined, in duplicate, by measuring the release of inorganic phosphate, which was assayed according to the method of J. ChandraRajan and L. Klein, Anal. Biochem., 72 , 407 (1976). The (H^+/K^+)-ATPase assay medium consisted of 20 mm mes-Tris (pH 6.0), 5 mM magnesium chloride, 25 mM sucrose, and 4 mM Tris-ATP with or without 20 mM potassium chloride in a total volume of 2 ml. Microsomal suspensions (20 to 60 mcl, containing about 25 mcg protein) were added to the assay medium, without Tris-ATP, and then preincubated with a test compound for thirty minutes at 37° C. The assay was initiated by adding Tris-ATP and the mixture was incubated another thirty minutes at 37° C. A 200-mcl aliquot of the assay mixture was then added to 1.4 ml of a solution consisting of 0.1 M sodium acetate (pH 4.0) and 10% sodium dodecylsulfate, followed by the addition of 200 mcl each of 1% ammonium molybdate and 1% ascorbic acid. At least fifteen minutes later, the optical absorbance at 870 nm (which was proportional to inorganic phosphate concentration up to 100 nmoles per tube, as determined by a standard curve) was obtained. Enzyme activity was linear with incubation time.
(H^+/K^+)-ATPase activity is represented by the difference between the measured activities in the presence of potassium-ion (K^+-stimulated) and in the absence of potassium ion (basal).

gastric acid secretion = experiment: Inhibition of gastric acid secretion in gastric fistula beagle dogs (histamine-stimulated); assay type: in vivo; conditions: for inhibition in vivo at 3 mg/kg: Canis lupus familiaris, 4 h, read-out: Gastric-Fistula Beagle % Inhibition (3 mg/kg dose)
Text: Adult female beagle dogs weighing 6 to 11 kilograms obtained from Laboratory Research Enterprises (Kalamazoo, Mich.) or from Hazelton Research Animals (Cumberland, Va.) were surgically implanted with a simple Thomas-type gastric cannula. After recovery from surgery, the dogs were trained to stand quietly, fully conscious, in Pavlov-type dog restraining slings and were acclimated to intravenous infusion of histamine dihydrochloride. During the course of these studies, no dog was used more than once a week. All dogs were deprived of food, but not water, for 18 hours prior to each assay. Each dog was initially infused with 0.15 M sodium chloride solution at a constant rate of […]. The volume of gastric secretions, collected in plastic bottles affixed to the cannula, were measured to the nearest 0.1 ml at 30 minute intervals. One of the following protocols was followed, depending on the route chosen for administration of test compound.
Intravenous dosing: Following a 30-minute basal secretion period, test compounds were administered intravenously (i.v.). At the end of an additional 30 minute period, the saline infusion was replaced with histamine dihydrochloride in saline administered at a rate 15 mcg per kilogram of body weight per hour. Histamine stimulation was maintained for a maximum of four hours during which time gastric secretions were collected every 30 minutes. The pH and titratable acidity were determined for samples from each collection period.
Intragastric dosing: Following a 30-minute basal secretion period, he collection bottles were removed, dosing plugs here inserted, and test compounds were administered intragastrically (i.g.) At the end of a 30-minute drug absorption period, the stomachs were emptied, the collection bottles were reattached, and collections were resumed at 30-minute intervals. Simultaneously, the saline infusion was replaced with a continuous intravenous infusion of histamine dihydrochloride in saline administered for four hours at a rate 15 mcg per kilogram of body weight per hour.
Intraduodenal dosing: Dogs were also equipped with duodenal cannulas for intraduodenal (i.d.) administration of test compounds. Dosing was otherwise performed as described for intragastric dosing.
Data from each protocol were analyzed for three gastric sample variables: volume of gastric juice, acid concentration, and total acid output. Percent inhibition for each four-hour experimental period was determined for each parameter by comparison with 3 to 4 controls in which […]. Estimates of ED50's were determined from dose response curves.

[1] = molecular target: HCMV protease (assemblin) (Human cytomegalovirus, UniProt P16753); experiment: Enzymatic assay for HCMV protease (assemblin) inhibitors, fluorogenic substrate DE2; assay type: biochemical; conditions: for inhibition at 100 µM: read-out: Assemblin Inhibition % Inhibition at 100 μm
Experimental: The enzymatic assay for assemblin inhibitors compared the rate of product appearance between a control reaction containing no inhibitor and one that contained a known concentration of a potential inhibitor. There were two phases to the enzyme reaction. The first was a period of incubation of enzyme in the presence of inhibitor, but in the absence of the substrate. This incubation allowed for the inhibitor to bind and potentially block the enzyme from hydrolyzing the substrate. The second phase was started by adding the substrate and measuring the rate of product production.
The construction also encoded six additional histidine residues at the amino terminus of the protease. These additional histidine residues provided an affinity ligand by which it was purified using nickel-nitriloacetic acid-agarose (Qiagen).
The purified protease was stored as a 1-3 mg/ml stock solution in 50 mM sodium phosphate buffer, pH 7.4; 300 mM sodium chloride; 100 mM imidazole; 50% (v/v) glycerol. This stock was diluted with assay buffer to 4.8 μg/ml. A 100 μL aliquot of this solution was used in the enzyme reaction.
A specific substrate was synthesized based on the cleavage specificity of HCMV protease at the “maturation site” of the assembly protein (F. Liu and B. Roizman, J. Viral. 65, 5149 (1991), and A. R. Welch, et al, J. Viral., 65 4091 (1991)). The assembly protein maturation site has the sequence . . . AGVVNA*SCRLATA . . . (SEQ ID NO. 1); the substrate used was dabcycl-Abu-[…]-edans (SEQ ID NO. 2) (DE2). […] However, when the two chromophores are separated because of hydrolysis of the peptide moiety by HCMV protease the edans fluorescence was no longer quenched and an increase in fluorescence was realized. DE2 was stored as a stock solution at 160 μg/ml in dimethyl sulfoxide. This was diluted 10-fold with assay buffer to give a concentration of 16 μg/ml just before use. An aliquot of 50 μL was used in the reaction.
An assay Buffer (10 mM sodium phosphate buffer, pH 7.4; 150 mM sodium acetate; 0.1% CHAPS; and 20% (v/v) glycerol) was used to dilute stock solutions of enzyme and substrate.
Inhibitors were dissolved in dimethyl sulfoxide at 16-times the final assay concentration. A 10 μL aliquot of this inhibitor solution was used in the reaction.
A 100 μL aliquot of enzyme solution (4.8 μg/ml) was mixed with 10 μL of inhibitor solution in a 96-well plate cell and incubated at 22° C. for 30 minutes. Control reactions contained 10 μL of dimethylsulfoxide instead of inhibitor solution. After the preincubation was completed, 50 μL of substrate solution was added and the fluorescence recorded every 5 minutes for a period of 30 minutes. All reactions were run in triplicate with the exception of the uninhibited control reaction which was replicated 6-fold. The change in fluorescence was recorded over time and an average rate for each set of 3 reactions was calculated. Fluorescence assays were subject to spurious various due to factors such as dust in the 96-well plate; such results were omitted from the calculation of relative rates.

[2] = canine gastric mucosa microsomes, pH 6.0, 30 min preincubation at 37° C., read-out: (H+/K+)-ATPase IC50
[3] = iv, 3 mg/kg i.v., histamine-stimulated, four-hour period
[4] = at 100 μm, 30 min preincubation at 22° C.
[5] = intraduodenal, 3 mg/kg i.d., histamine-stimulated, four-hour period

HCMV protease (assemblin), sequence (P16753 1-256): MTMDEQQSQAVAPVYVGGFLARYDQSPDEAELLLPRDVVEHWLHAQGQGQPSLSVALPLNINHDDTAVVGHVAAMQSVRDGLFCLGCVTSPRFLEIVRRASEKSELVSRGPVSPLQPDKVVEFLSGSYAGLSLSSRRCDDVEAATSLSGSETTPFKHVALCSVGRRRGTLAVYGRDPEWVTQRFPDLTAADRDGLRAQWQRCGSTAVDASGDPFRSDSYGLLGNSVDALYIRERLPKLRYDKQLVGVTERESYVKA
T1 sequence (P50996 whole entry): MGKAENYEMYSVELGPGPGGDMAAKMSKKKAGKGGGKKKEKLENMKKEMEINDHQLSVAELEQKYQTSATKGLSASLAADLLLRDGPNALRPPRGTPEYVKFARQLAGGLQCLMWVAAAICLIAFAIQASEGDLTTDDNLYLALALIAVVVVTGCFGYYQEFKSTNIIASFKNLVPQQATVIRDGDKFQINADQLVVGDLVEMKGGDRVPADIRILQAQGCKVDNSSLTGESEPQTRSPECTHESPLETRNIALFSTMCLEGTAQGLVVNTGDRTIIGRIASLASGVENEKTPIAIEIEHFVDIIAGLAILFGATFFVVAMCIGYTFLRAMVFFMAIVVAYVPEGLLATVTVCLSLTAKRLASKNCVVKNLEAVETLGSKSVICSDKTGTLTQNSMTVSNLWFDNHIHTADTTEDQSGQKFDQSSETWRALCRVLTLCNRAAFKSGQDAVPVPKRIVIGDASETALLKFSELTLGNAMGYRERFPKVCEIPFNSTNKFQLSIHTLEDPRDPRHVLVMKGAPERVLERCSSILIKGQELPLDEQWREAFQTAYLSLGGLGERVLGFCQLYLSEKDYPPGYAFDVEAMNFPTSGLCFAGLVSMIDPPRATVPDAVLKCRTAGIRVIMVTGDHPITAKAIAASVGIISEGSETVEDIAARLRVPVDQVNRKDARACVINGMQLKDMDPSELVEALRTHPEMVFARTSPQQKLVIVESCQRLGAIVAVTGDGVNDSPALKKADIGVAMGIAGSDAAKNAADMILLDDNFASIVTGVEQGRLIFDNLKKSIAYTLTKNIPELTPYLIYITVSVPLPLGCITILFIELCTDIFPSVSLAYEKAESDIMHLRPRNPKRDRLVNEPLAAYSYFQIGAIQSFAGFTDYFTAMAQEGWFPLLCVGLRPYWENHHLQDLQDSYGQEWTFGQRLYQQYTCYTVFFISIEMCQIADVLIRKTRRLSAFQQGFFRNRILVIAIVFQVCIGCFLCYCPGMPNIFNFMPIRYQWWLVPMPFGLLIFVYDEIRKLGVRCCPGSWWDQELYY
T1 sequence (P33704 whole entry partner): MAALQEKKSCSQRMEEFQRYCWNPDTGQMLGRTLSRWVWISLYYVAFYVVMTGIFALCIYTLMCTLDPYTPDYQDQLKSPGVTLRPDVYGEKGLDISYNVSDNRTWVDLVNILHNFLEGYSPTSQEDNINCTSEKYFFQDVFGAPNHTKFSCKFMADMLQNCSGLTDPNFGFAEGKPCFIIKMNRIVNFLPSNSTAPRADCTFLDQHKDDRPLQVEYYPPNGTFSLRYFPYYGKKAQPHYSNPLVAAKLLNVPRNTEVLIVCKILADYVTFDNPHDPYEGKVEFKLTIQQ

SMILES	IC50 ((H+/K+)-ATPase; [2])	inhibition at 100 µM [1, 4]	melting point	also measured
COc1cccc(C[S+]([O-])c2nc3ccccc3[nH]2)c1N.COc1cccc(C[S+]([O-])c2nc3ccccc3[nH]2)c1N.O (stereo not shown) [Example 22, 2-((1H-Benzimidazol-2-ylsulfinyl)methyl]-6-methoxybenzenamine hemihydrate]	9.3 µM			Gastric-Fistula Beagle % Inhibition (3 mg/kg dose) (gastric acid secretion; 3 mg/kg i.v., histamine-stimulated, four-hour period): 70 i.v. %; Assemblin Inhibition % Inhibition at 100 μm [1, 4]: 35%
CNc1ccccc1C[S+]([O-])c1nc2ccccc2[nH]1 (stereo not shown) [Example 32, 2-[(1H-Benzimidazol-2-ylsulfinyl)methyl]-N-methylbenzenamine monohydrate]	0.64 µM			inhibition in vivo at 3 mg/kg (gastric acid secretion; intraduodenal): 21%; inhibition at 100 µM [1]: 52%
CCOc1ccc2[nH]c([S+]([O-])Cc3ccccc3N)nc2c1 (stereo not shown) [Example 45, 2-[[(5-Ethoxy-1H-benzimidazol-2-yl)sulfinyl]-methyl]benzenamine]	24 µM	51%	154 to 155 °C	
Cc1cc(Cl)cc(C[S+]([O-])c2nc3ccccc3[nH]2)c1N.Cc1cc(Cl)cc(C[S+]([O-])c2nc3ccccc3[nH]2)c1N.O (stereo not shown) [Example 57, 2-[(1H-Benzimidazol-2-ylsulfinyl)methyl]-4-chloro-6-methylbenzenamine hemihydrate]	60 µM			Assemblin Inhibition % Inhibition at 100 μm [1, 4]: 66%
COc1cc(Cl)c(C)c(C[S+]([O-])c2nc3ccccc3[nH]2)c1N (stereo not shown) [Example 59, 2-[(1H-Benzimidazol-2-ylsulfinyl)methyl]-4-chloro-6-methoxy-3-methylbenzenamine]	2.7 µM	71%	163 to 164 °C	
CCOC(=O)c1ccc(N)c(C[S+]([O-])c2nc3ccccc3[nH]2)c1.CCOC(=O)c1ccc(N)c(C[S+]([O-])c2nc3ccccc3[nH]2)c1.O (stereo not shown) [Example 71, Ethyl 4-amino-3-[(1H-benzimidazol-2-ylsulfinyl)methyl]benzoate hemihydrate]	> 100 µM			Gastric-Fistula Beagle % Inhibition (3 mg/kg dose) (gastric acid secretion; 3 mg/kg i.d., histamine-stimulated, four-hour period): 7 i.d. %; Assemblin Inhibition % Inhibition at 100 μm [1, 4]: 44%
CN(C)c1ncccc1C[S+]([O-])c1nc2ccccc2[nH]1 (stereo not shown) [Example 83, 3-[(1H-Benzimidazol-2-ylsulfinyl)methyl]-N,N-dimethyl-2-pyridinamine ⅓ hydrate]		83%		IC50 ((H+/K+)-ATPase): 8.6 µM; inhibition in vivo at 3 mg/kg (gastric acid secretion; [3]): 15%

More lines, main results first:

IC50 ((H+/K+)-ATPase; [2])	inhibition at 100 µM [1, 4]	melting point	SMILES	also measured
13.5 µM	43%		Cc1cc2nc([S+]([O-])Cc3ccccc3N)[nH]c2cc1C (stereo not shown) [Example 10, 2-[[(5,6-Dimethyl-1H-benzimidazol-2-yl)sulfinyl]methyl]benzenamine ¼ hydrate]	inhibition in vivo at 3 mg/kg (gastric acid secretion; [3]): 44%
11 µM	26%	147 to 148 °C	COc1ccc2[nH]c([S+]([O-])Cc3ccccc3N)nc2c1 (stereo not shown) [Example 12, 2-[[(5-Methoxy-1H-benzimidazol-2-yl)sulfinyl]methyl]benzenamine]	inhibition in vivo at 3 mg/kg (gastric acid secretion; [5]): 90%
0.2 µM	46%	150 to 155 °C	COc1c(C)cc(N)c(C[S+]([O-])c2nc3ccccc3[nH]2)c1C (stereo not shown) [Example 39, 2-[(1H-Benzimidazol-2-ylsulfinyl)methyl]-4-methoxy-3,5-dimethylbenzenamine]	inhibition in vivo at 3 mg/kg (gastric acid secretion; [5]): 53%
4.4 µM	40%	152 to 152.5 °C	Nc1ccccc1C[S+]([O-])c1nc2cc(C(F)(F)F)ccc2[nH]1 (stereo not shown) [Example 47]	inhibition in vivo at 3 mg/kg (gastric acid secretion; [5]): 37%
> 100 µM	50%		CCOC(=O)c1ccc(N)c(C[S+]([O-])c2nc3ccc(OC)cc3[nH]2)c1 (stereo not shown) [Example 73, Ethyl 4-amino-3-[[(S-methoxy-1H-benzimidazol-2-yl)sulfinyl]methyl]benzoate]	
